Values quoted from earlier work, collected in publication PMC6582641 (Organic & biomolecular chemistry, 2019).
pIC50: −log10 of the molar value.

Key:
TRPC4 = conditions: read-out: IC50 TRPC4
TRPC5 = conditions: read-out: IC50 towards TRPC5

Cn1c(=O)n(CCCO)c(=O)c2c1nc(Oc1cccc(Cl)c1)n2Cc1ccc(Cl)cc1 [HC070, 7-(4-Chlorobenzyl)-8-(3-Chlorophenoxy)-1-(3-Hydroxypropyl)-3-Methyl-3,7-Dihydro-1H-Purine-2,6-Dione]
anxiolytic and antidepressant effects (mice): produces anxiolytic and antidepressant effects in mice

Cn1c(=O)n(CCCO)c(=O)c2c1nc(Oc1cccc(OC(F)(F)F)c1)n2Cc1ccc(Cl)cc1 [HC608, 7-(4-Chlorobenzyl)-1-(3-Hydroxypropyl)-3-Methyl-8-(3-(Trifluoromethoxy)Phenoxy)-3,7-Dihydro-1H-Purine-2,6-Dione]
binding activity toward TRPM2 (TRPM (melastatin) 2): no binding activities | binding activity toward TRPC6 (TRPC6): no binding activities | pIC50 (TRPC4): 7.49 | binding activity toward TRPM8 (TRPM (melastatin) 8): no binding activities | binding activity toward TRPA1 (TRPA (ankyrin) 1): no binding activities | binding activity toward TRPC3 (TRPC3): no binding activities | binding activity toward TRPV4 (TRPV (vanilloid) 4): no binding activities | pIC50 (TRPC5): 8.21 | binding activity toward TRPV1 (TRPV (vanilloid) 1): no binding activities
